This note sets out measurements from US12240857B2 (priority 2017, dated 2025).

Where two headings read alike, the source gives them in different places.

Broadly, the EC50 is the concentration giving half of the maximal effect.

The test system of data set [1] is EBOV mucin-domain-deleted glycoprotein pseudotyped VSV. The data set can be described thus: microbe, parasite or virus in culture. In kind it is cell-based, Zaire ebolavirus. The note with it: read-out: EC50 EBOV.
A short description of the next data set: in vitro. The note with it: African green monkey, CC50.
In data set [2] the test system is wild-type Ebola Zaire. As to the kind of experiment: microbe, parasite or virus in culture. The note with it: Zaire ebolavirus, HeLa, read-out: Ebola Zaire EC50.
Data set [3] concerns BDBV mucin-domain-deleted glycoprotein pseudotyped VSV. As to the kind of experiment: microbe, parasite or virus in culture. It counts as cell-based, Bundibugyo ebolavirus. As to conditions: read-out: EC50 BDBV.
The test system of data set [4] is wild-type Ebola Zaire.
Another data set concerns Vero cells. The note with it: for % cell viability at 5 μM / % cell viability at 3 μM / % cell viability at 10 μM: African green monkey.
The test system of data set [5] is parent VSV virus expressing the native VSV glycoprotein. The data set can be described thus: microbe, parasite or virus in culture. In kind it is cell-based. The note with it: Vesicular stomatitis virus, Vero, read-out: VSV % inh. at 5 μM.
Where [6] appears, read: Vesicular stomatitis virus, Vero.
The mark [7] stands for this setting: Vesicular stomatitis virus, Vero, 24 h.

Regarding `CN1CCN(NC(=O)C23CC4CC(C)(C2)CC(c2ccccc2)(C4)C3)CC1` (stereo not drawn) [Example A47], the EC50 amounted to 0.07 µM in data set [1] (Zaire ebolavirus, Vero); 0.71 µM with wild-type Ebola Zaire [2]; 0.17 µM in data set [3] (setting [6]). This compound came in with a CC50 in the data set “in vitro” of 36.2 µM. The “Ebola Zaire SI (CC50/EC50)” value in the data set on wild-type Ebola Zaire [4] is reported as over 8.5.

With `CC12CC3CC(C(=O)N4CCNCC4)(C1)CC(c1ccccc1)(C3)C2` (stereo not drawn) [Example A71], the EC50 in data set [1] (Zaire ebolavirus, Vero) came out at 0.13 µM; in the data set with wild-type Ebola Zaire [2], 0.87 µM; in data set [3] (setting [6]), 0.13 µM. Moreover, in “in vitro”, the CC50 was determined as 4.6 µM. Moreover, the “Ebola Zaire SI (CC50/EC50)” value with wild-type Ebola Zaire [4] was over 6.

Take `O=C(NC1CCN(Cc2ccccc2)CC1)C12CC3CC(C1)CC(c1ccccc1)(C3)C2` [Example B1, N-(1-benzylpiperidin-4-yl)-3-phenyladamantane-1-carboxamide]: the half-maximal effective concentration (EC50) in data set [1] (Zaire ebolavirus, Vero, 24 h) came to 0.44 µM; in data set [3] (setting [7]), 0.77 µM. Moreover, the “% cell viability at 5 μM” value in the data set on Vero cells worked out at 62%. Further, the inhibition at 5 µM in data set [5] was under 20%.

As to `CC(C)CN1CCOC(CNC(=O)C23CC4CC(C2)CC(c2ccccc2)(C4)C3)C1` (stereo not drawn) [Example B2, N-{[4-(2-methylpropyl)morpholin-2-yl]methyl}-3-phenyladamantane-1-carboxamide], in data set [1] (Zaire ebolavirus, Vero, 24 h), the EC50 turned out to be 0.57 µM. In addition, in the data set with Vero cells, the “% cell viability at 3 μM” value came to 100% and the “% cell viability at 10 μM” value came out at 97%. The EC50 in data set [3] (setting [7]) was found to be 0.93 µM.

As to `O=C(N1CCN(c2ccccc2)CC1)C12CC3CC(C1)CC(c1ccccc1)(C3)C2` [Example B3, 1-phenyl-4-[(3-phenyladamantan-1-yl)carbonyl]piperazine], the EC50 was 0.61 µM in data set [1] (Zaire ebolavirus, Vero, 24 h) and over 5 µM in data set [3] (setting [7]). In the data set with Vero cells, the “% cell viability at 5 μM” value was 83%.

Turning to `CC(C)(CNC(=O)C12CC3CC(C1)CC(c1ccccc1)(C3)C2)N1CCOCC1` [Example B4, N-[2-methyl-2-(morpholin-4-yl)propyl]-3-phenyladamantane-1-carboxamide], the half-maximal effective concentration (EC50) was 0.69 µM in data set [1] (Zaire ebolavirus, Vero, 24 h) and 2.69 µM in data set [3] (setting [7]). For the same compound, in the data set on Vero cells, the “% cell viability at 3 μM” value is listed as 100%. In addition, the “% cell viability at 10 μM” value with Vero cells is listed as 114%.

`O=C(N[C@@H]1CCNC1)C12CC3CC(C1)CC(c1ccccc1)(C3)C2` [Example B5, 3-phenyl-N-[(3R)-pyrrolidin-3-yl] adamantane-1-carboxamide]: the EC50 came to 0.79 µM in data set [1] (Zaire ebolavirus, Vero, 24 h) and 0.56 µM in data set [3] (setting [7]). Also, in the data set with Vero cells, the “% cell viability at 5 μM” value came to 97%. In data set [5], the inhibition at 5 µM is under 20%.

Consider `COc1ccc(N2CCN(CCCNC(=O)C34CC5CC(C3)CC(c3ccccc3)(C5)C4)CC2)cc1` [Example B6, N-{3-[4-(4-methoxyphenyl)piperazin-1-yl]propyl}-3-phenyl adamantane-1-carboxamide], for which the EC50 in data set [1] (Zaire ebolavirus, Vero, 24 h) was 0.92 µM; in data set [3] (setting [7]), 1.6 µM. Also, the “% cell viability at 3 μM” value in the data set on Vero cells was 75%. Moreover, the “% cell viability at 10 μM” value with Vero cells was determined as 25%.

Regarding `COc1ccc(C(CNC(=O)C23CC4CC(C2)CC(c2ccccc2)(C4)C3)N2CCOCC2)cc1` (stereo not drawn) [Example B7, N-[2-(4-methoxyphenyl)-2-(morpholin-4-yl)ethyl]-3-phenyl adamantane-1-carboxamide], the EC50 was found to be 3.2 µM in data set [1] (Zaire ebolavirus, Vero, 24 h) and 3.1 µM in data set [3] (setting [7]). The “% cell viability at 3 μM” value in the data set on Vero cells came out at 112%. In addition, the “% cell viability at 10 μM” value in the data set on Vero cells was found to be 95%.

In the case of `O=C(NCC(c1cccs1)N1CCOCC1)C12CC3CC(C1)CC(c1ccccc1)(C3)C2` (stereo not drawn) [Example B8, N-[2-(morpholin-4-yl)-2-(thiophen-2-yl)ethyl]-3-phenyladamantane-1-carboxamide], in data set [1] (Zaire ebolavirus, Vero, 24 h), the EC50 worked out at 3.6 µM. Moreover, in the data set with Vero cells, the “% cell viability at 3 μM” value was determined as 103% and the “% cell viability at 10 μM” value is 90%. Also, the EC50 in data set [3] (setting [7]) came out at 4.6 µM.

`O=C(NC1CCN(Cc2ccccc2)CC1)C12CC3CC(CC(Cl)(C3)C1)C2` [Example B9, N-(1-benzylpiperidin-4-yl)-3-chloro adamantane-1-carboxamide]: the EC50 in data set [1] (Zaire ebolavirus, Vero, 24 h) was found to be 3.8 µM. Also, in the data set on Vero cells, the “% cell viability at 3 μM” value was determined as 112% and the “% cell viability at 10 μM” value was found to be 104%. Further, in data set [3] (setting [7]), the EC50 is 3.1 µM.

Take `O=C(CN1CCN(C(=O)C23CC4CC(C2)CC(c2ccccc2)(C4)C3)CC1)NC1CC1` [Example B10, N-cyclopropyl-2-{4-[(3-phenyladamantan-1-yl)carbonyl]piperazin-1-yl}acetamide]: the EC50 in data set [1] (Zaire ebolavirus, Vero, 24 h) is under 5 µM. Besides, the inhibition at 5 µM in data set [5] was under 20%.

In the case of `Cc1ccc(C23CC4CC(CC(C(=O)NC5CN6CCC5CC6)(C4)C2)C3)cc1` (stereo not drawn) [Example B11, N-{1-azabicyclo[2.2.2]octan-3-yl}-3-(4-methylphenyl)adamantane-1-carboxamide], the EC50 in data set [1] (Zaire ebolavirus, Vero, 24 h) is under 5 µM. The “% cell viability at 5 μM” value in the data set with Vero cells came to 92%. Besides, the inhibition at 5 µM in data set [5] is under 20%.

Consider `CC12CC3CC(C)(C1)CC(C(=O)NCCN1CCCCC1)(C3)C2` [Example B12, 3,5-dimethyl-N-[2-(piperidin-1-yl)ethyl] adamantane-1-carboxamide], for which the EC50 in data set [1] (Zaire ebolavirus, Vero, 24 h) was 50 µM. For the same compound, the “% cell viability at 5 μM” value in the data set on Vero cells turned out to be 90%. Also, the inhibition at 5 µM in data set [5] was under 20%.

On to `Cc1ccc(C23CC4CC(CC(C(=O)N5CCN(Cc6ccccc6)CC5)(C4)C2)C3)cc1` [Example B13, 1-benzyl-4-{[3-(4-methylphenyl)adamantan-1-yl]carbonyl}piperazine], for which the concentration for a half-maximal effect (EC50) in data set [1] (Zaire ebolavirus, Vero, 24 h) is over 5 µM; in data set [3] (setting [7]) it was over 5 µM. Besides, the inhibition at 5 µM in data set [5] was under 20%.

`Cc1ccc(C23CC4CC(CC(C(=O)N5CCN(C)CC5)(C4)C2)C3)cc1` [Example B14, 1-methyl-4-{[3-(4-methylphenyl)adamantan-1-yl]carbonyl} piperazine]: the EC50 in data set [1] (Zaire ebolavirus, Vero, 24 h) worked out at 5.6 µM. In addition, the “% cell viability at 5 μM” value in the data set on Vero cells stood at 95%. The inhibition at 5 µM in data set [5] was under 20%.

In the case of `O=C(NC1CCN(Cc2ccccc2)CC1)C12CC3CC(CC(C3)C1)C2` [Example B15, N-(1-benzylpiperidin-4-yl)adamantane-1-carboxamide], the EC50 in data set [1] (Zaire ebolavirus, Vero, 24 h) stood at 5.9 µM. Moreover, in the data set on Vero cells, the “% cell viability at 3 μM” value is 99% and the “% cell viability at 10 μM” value was found to be 98%. In data set [3] (setting [7]), the EC50 is 3.9 µM.

As to `Cc1ccccc1-c1nnn(CC(=O)NC(C)C23CC4CC(CC(C4)C2)C3)n1` (stereo not drawn) [Example D42, N-[1-(adamantan-1-yl)ethyl]-2-[5-(2-methylphenyl)-2H-1,2,3,4-tetrazol-2-yl] acetamide], the 50% effective concentration (EC50) in data set [1] was 3.2 µM; in data set [3], 3.9 µM. The CC50 in the data set on Vero cells was over 10 µM.

As to `O=C(CC1CCNCC1)NC12CC3CC(C1)CC(c1ccccc1)(C3)C2` [Example E4, N-(3-phenyladamantan-1-yl)-2-(piperidin-4-yl)acetamide], the EC50 amounted to 1.08 µM in data set [1] (Zaire ebolavirus, Vero) and 0.79 µM in data set [3] (setting [6]). The CC50 in the data set “in vitro” is 23.1 µM.

For `N[C@H]1CC[C@H](C(=O)NC23CC4CC(C2)CC(c2ccccc2)(C4)C3)CC1` [Example E5, trans-4-amino-N-(3-phenyladamantan-1-yl)cyclohexane-1-carboxamide], the EC50 is 0.68 µM in data set [1] (Zaire ebolavirus, Vero) and 0.23 µM in data set [3] (setting [6]). Further, in “in vitro”, the CC50 came to 13.3 µM.

Regarding `O=C(NCC12CC3CC(C1)CC(c1ccccc1)(C3)C2)C1CCNCC1` [Example E6, N-[(3-phenyladamantan-1-yl)methyl]piperidine-4-carboxamide], the EC50 in data set [1] (Zaire ebolavirus, Vero) came out at 0.71 µM; in data set [3] (setting [6]), 0.2 µM. The CC50 in “in vitro” turned out to be 11.9 µM.
